Results: publication PMC4848641, “The Scorpion Toxin Analogue BmKTX-D33H as a Potential Kv1.3 Channel-Selective Immunomodulator for Autoimmune Diseases” (Toxins, 2016)
“Also recorded” adds a separate entry of the source. Where a SMILES comes first, the peptide text is derived from it. Bridges are numbered along the chain shown (N, C = ends).

Columns and labels:
KCa2.3 = assay: Whole-cell patch-clamp, KCa2.3 channel currents (transfected HEK293 cells); format: cell-based; details: micromolar concentration (1 μM), pH 7.4
Procedure: (§1) Whole cell patch-clamp recordings of Kv1.3 channel were obtained from human T cells. Electrophysiological experiments of other assayed potassium channels were performed on HEK293 cells transfected with cDNA encoding Kv1.1, Kv1.2, Kv1.3, Kv7.1, Kv11.1, KCa2.2, KCa2.3, and KCa3.1 channels using TurboFect Reagent (ThermoSci., Waltham, MA, USA). The cDNAs were subcloned into the Xho I/Bam HI sites of pIRES2-EGFP, a bicistronic expression vector (Clontech, Mountain View, CA, USA) coexpressed with enhanced GFP. The constructs were verified by DNA sequencing. Currents were recorded on eGFP-expression positive cells one to three days post-transfection. Electrophysiological experiments were performed using protocols according to previously published references. Cells were bathed with mammalian Ringer’s solution: 5 mM KCl, 140 mM NaCl, 2 mM CaCl2, 1 mM MgCl2, […], 10 mM D-glucose (adjusted to pH 7.4 with NaOH). A multichannel microperfusion system MPS-2 (INBIO Inc, Wuhan, China) was used to exchange the external recording bath solution. […] Membrane currents were measured with an EPC 10 patch clamp amplifier (HEKA Elektronik, Lambrecht/Pfalz, Germany) interfaced to a computer running acquisition and analysis software (Pulse, v8.80, HEKA Elektronik, Lambrecht/Pfalz, Germany). […]

KCa3.1 = assay: Whole-cell patch-clamp, KCa3.1 channel currents (transfected HEK293 cells); format: cell-based; details: micromolar concentration (1 μM), pH 7.4
Procedure: as §1

Kv1.2 = assay: Whole-cell patch-clamp, Kv1.2 channel currents (transfected HEK293 cells); format: cell-based; details: micromolar concentration (1 μM), pH 7.4
Procedure: as §1

Kv1.1 = assay: Whole-cell patch-clamp, Kv1.1 channel currents (transfected HEK293 cells); format: cell-based; details: 1 μM, −80 mV to +50 mV, pH 7.4, means ± S.E. of at least three experiments
Procedure: as §1

KCa2.2 = assay: Whole-cell patch-clamp, KCa2.2 channel currents (transfected HEK293 cells); format: cell-based; details: micromolar concentration (1 μM), pH 7.4
Procedure: as §1

CD3^+ T cells [1] = format: cell-based; details: human CD3^+ T cells, anti-CD3/CD28 beads, 48 h; CellTiter 96 AQueous One Solution, 490 nm
Procedure: (§2) Peripheral blood (PB) obtained from four healthy volunteers was approved by the Ethics Committee of the College of Life Sciences in Wuhan University (Permit number: ECCLS20120076, approved at 3 May 2012). Ficoll gradients were used to isolate mononuclear cells from PB. The CD3^+ T cells were then purified using EasySep Isolation Kit (StemCell Technologies, Vancouver, BC, Canada), and cultured at density of 5 × 10^5 cells per cm^2 in RPMI-1640 medium supplemented with 2 mM glutamine, and 10% FBS. All the T-cells were cultured at a temperature of 37 °C in a humidified 95% air and 5% CO2 atmosphere. The Jurkat cells were stimulated with 100 ng/ml phorbol ester (PMA) (Sigma-Aldrich, Munich, Germany) and […] Ionmycin (ION) (Sigma-Aldrich, Munich, Germany). The CD3^+ T cells were stimulated with anti-CD3/CD28 antibodies beads (Life Technologies, Waltham, MA, USA). BmKTX-D33H (ranged from 0.1 to 100 nM) was added for 1 h prior to stimulation.
(§3) The Jurkat cells or peripheral blood CD3^+ cells were seeded in round-bottom plates (Corning-costar) at 5 × 10^5 cells per cm^2. […] The cells were cultured for 48 h, and cell proliferation was measured using CellTiter 96 AQueous One Solution Cell Proliferation Assay Kit (Promega, Madison, WI, USA) in accordance with the manufacturer’s guide. Absorbance was read at a wavelength of 490 nm.

Kv11.1 = format: cell-based; details: micromolar concentration (1 μM); HEK293 cells, patch-clamp, pH 7.4
Procedure: as §1

[2] = system: Kv1.3 channels on the freshly isolated CD3^+ T cells; assay: Whole-cell patch-clamp, Kv1.3 currents in freshly isolated human CD3^+ T cells; format: cell-based; details: pH 7.4, means ± S.E. of at least three experiments
Procedure: as §1

Kv1.3 channel [3] = assay: Selectivity towards the Kv1.3 channel over other K^+ channels; format: cell-based; details: versus Kv1.1, Kv1.2, Kv1.7 (Kv7.1), Kv11.1, KCa2.2, KCa2.3, and KCa3.1
Procedure: as §1

Jurkat cells [4] = system: Jurkat cells
Text: (§4) Jurkat E6-1 cells were obtained from the American Tissue Culture Collection (ATCC, Manassas, VA, USA) and cultured in RPMI-1640 supplied with 10% fetal bovine serum (FBS).
(§5) Peripheral blood (PB) obtained from four healthy volunteers was approved by the Ethics Committee of the College of Life Sciences in Wuhan University (Permit number: ECCLS20120076, approved at 3 May 2012). Ficoll gradients were used to isolate mononuclear cells from PB. The CD3^+ T cells were then purified using EasySep Isolation Kit (StemCell Technologies, Vancouver, BC, Canada), and cultured at density of 5 × 10^5 cells per cm^2 in RPMI-1640 medium supplemented with 2 mM glutamine, and 10% FBS. […]
as §3
(§6) The IL-2, IFN-γ, and TNF-α levels in supernatants of stimulated cells were measured with ELISA kit (Dakewei, Shenzhen, China) following the manufacturer’s protocol. Absorbance was measured with an automatic plate reader at a wavelength of 450 nm with reference at 630 nm.

Kv1.3 channels = assay: Whole-cell patch-clamp, Kv1.3 channel currents; format: cell-based; details: 10 pM, 200 ms depolarizing steps from holding potential −80 mV to +50 mV, pH 7.4, means ± S.E. of at least three experiments
Procedure: as §1

Kv1.7 = assay: Whole-cell patch-clamp, Kv1.7 (Kv7.1 in legend and methods) channel currents (transfected HEK293 cells); format: cell-based; details: micromolar concentration (1 μM), pH 7.4
Procedure: as §1

Lewis rats = assay: Active delayed-type hypersensitivity (DTH), ear swelling; format: in vivo; details: female Lewis rats; 100 μg/kg, single subcutaneous injection at ovalbumin challenge; 4, 6, and 24 h after challenge; vs vehicle control
Procedure: The animal trial was approved by the Animal Use and Care Committee of the Wuhan University. Female Lewis rats (9–10 weeks of age) were purchased from Charles River Laboratories and housed under pathogen-free conditions. Active DTH was induced as describe previously by immunizing rats against antigen of ovalbumin (Sigma-Aldrich, Munich, Germany) emulsified with complete Freund’s adjuvant (Sigma-Aldrich, Munich, Germany). The emulsion was injected subcutaneously into Lewis rats in order to prime the immune system and develop memory T cells. Seven days later, the rats were challenged again with ovalbumin (20 μg in 20 μL of saline solution) in the pinna of one ear (challenged ear). The other side of ear received saline solution as challenge control. Rats in control group received a single subcutaneous injection of 0.5 mL vehicle (saline solution) in the scruff of the neck, at the time of second-challenge. Whereas, rats in drug-treatment group received 100 μg/kg BmKTX-D33H (in 0.5 mL vehicle) administrated using the same method. The change for thickness of ear (at 4, 6, and 24 h post-challenge) was measured as an indication of the inflammatory reaction and DTH severity.

Kv1.3 channel [5] = details: ref [29], cited from earlier work
Text: The venomous scorpions, which have lived on earth for over 400 million years, rely on their venoms for their efficient defense and capture strategy. During their molecular evolution, scorpions produced hundreds of peptide-based toxins in their venoms, typically targeting ion channels with a high degree of molecular diversity. Accordingly, scorpion venoms have been considered as invaluable resources of ion channel inhibitors. […] Because ADWX-1 is a potent blocker of the […] channel (IC50 value of 0.6 nM), we further investigated the pharmacological profile of BmKTX-D33H. || The most remarkable feature of BmKTX-D33H is its sought-after selectivity towards the Kv1.3 channel. Indeed, improving the selectivity of scorpion toxins (especially Kv1.1 versus Kv1.3 channel subtypes) still remains a serious challenge. […] For ADWX-1 ...

Jurkat cells [6] = format: cell-based; details: 48 h post-stimulation with 100 ng/mL PMA and 1 mM Ionmycin; CellTiter 96 AQueous One Solution, 490 nm
Text: as §4
as §2, with “The CD3^+ T cells were stimulated with anti-CD3/CD28 antibodies beads (Life Technologies, Waltham, MA, USA). BmKTX-D33H (ranged from 0.1 to 100 nM) was added for 1 h prior to stimulation.” left out
as §3

CD3^+ T cells [7] = details: pre-incubation for 1 h before activation; anti-CD3/CD28 beads; ELISA
Procedure: as §5, with “FBS. All the T-cells were cultured at a temperature of 37 °C in a humidified 95% air and 5% CO2 atmosphere.” for “FBS.”
as §3, §6

## CC[C@H](C)[C@H](NC(=O)CNC(=O)[C@@H](N)C(C)C)C(=O)N[C@@H](CC(N)=O)C(=O)N[C@H](C(=O)N[C@@H](CCCCN)C(=O)N[C@H]1CSSC[C@@H]2NC(=O)[C@H](CCCCN)NC(=O)CNC(=O)[C@H](Cc3ccccc3)NC(=O)[C@H](CCCNC(=N)N)NC(=O)[C@H](CCSC)NC(=O)CNC(=O)[C@H](C)NC(=O)[C@H](CC(=O)O)NC(=O)[C@H](CCCCN)NC(=O)[C@@H]3CSSC[C@@H](C(=O)N[C@H](C(=O)N4CCC[C@H]4C(=O)N[C@@H](CCCCN)C(=O)O)[C@@H](C)O)NC(=O)[C@H](Cc4c[nH]cn4)NC(=O)[C@H](CSSC[C@H](NC(=O)[C@H](CCC(N)=O)NC(=O)CNC(=O)[C@H](CO)NC(=O)[C@H](Cc4c[nH]cn4)NC(=O)[C@H](CCCCN)NC1=O)C(=O)N[C@@H](CC(C)C)C(=O)N[C@@H](CCCCN)C(=O)N1CCC[C@H]1C(=O)N3)NC(=O)[C@H](CCCCN)NC(=O)CNC(=O)[C@H](CC(N)=O)NC(=O)[C@H]([C@@H](C)CC)NC2=O)C(C)C [BmKTX-D33H] (H-VGINVKCKHSGQCLKPCKDAGMRFGKCINGKCHCTPK-OH; disulfide 7-27, 13-32, 17-34; N-terminus and C-terminus assumed)
KCa2.3
  sensitivity of KCa2.3 channel: much less sensitive
KCa3.1
  sensitivity of KCa3.1 channel: much less sensitive
Kv1.2
  sensitivity of Kv1.2 channel: much less sensitive
Kv1.1
  inhibition of Kv1.1 channel currents: about 46.6% ± 2.0%
KCa2.2
  sensitivity of KCa2.2 channel: much less sensitive
CD3^+ T cells [1]
  proliferation (growth) of CD3^+ cells: suppressed the growth of CD3^+ cells; also recorded: Suppression of cytokine production and in vitro proliferation
Kv11.1
  sensitivity of Kv11.1 channel: much less sensitive
[2]; 1 nM
  inhibition of Kv1.3 currents in CD3^+ T cells: 63.3% ± 2.9%
[2]; 10 nM
  inhibition of Kv1.3 currents in CD3^+ T cells: 90.7% ± 2.1%
Kv1.3 channel [3]
  selectivity towards the Kv1.3 channel as compared to other K^+ channels: more than 1000 fold
Jurkat cells [4]; 33 h
  IC50: 23.9 ± 20.1 nM
Jurkat cells [4]; stimulated by PMA + ION, ELISA
  IL-2 expression of Jurkat cells: significantly reduced
Kv1.3 channels
  inhibition of Kv1.3 channel currents: 56.0% ± 2.0%
Kv1.7
  sensitivity of Kv1.7 channel: much less sensitive
Lewis rats
  DTH response, change of ear thickness: significantly improved the delayed-type hypersensitivity (DTH) responses; also recorded: changes of ear thickness were significantly reduced; also recorded: dramatically reduced the in vivo DTH responses
Kv1.3 channel [5]; compared to wild-type BmKTX
  potency on the Kv1.3 channel compared with wild-type BmKTX: increased potency (as compared to wild-type BmKTX)
Kv1.3 channel [5]
  IC50: 0.0154 nM
Jurkat cells [6]
  proliferation (growth) of Jurkat cells: significantly inhibited; also recorded: Proliferation of activated Jurkat cells was suppressed
CD3^+ T cells [7]
  IFN-γ, TNF-α and IL-2 secretion of human T cells: robust dose-dependent reduction
